Test results from PubChem BioAssay (NCI).
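Where inhibition never reached the appropriate level, the endpoint shown equals the highest concentration tested. Otherwise, values were interpolated linearly from a five-concentration, 48-hour dose response in 96-well plates. TGI is the concentration that stops growth completely.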

Experiments:
Test in all cases: DTP human tumour cell line panel, 48 h
[1] = test system: U251 CNS
[2] = test system: HOP-92 NSCLC
[3] = test system: UACC-62 melanoma
[4] = test system: OVCAR-3 ovarian
[5] = test system: TK-10 renal
[6] = test system: NCI-H226 lung
[7] = test system: UACC-257 melanoma
[8] = test system: SK-OV-3 ovarian
[9] = test system: IGROV1 ovarian
[10] = test system: HCT-116 colon
[11] = test system: CCRF-CEM leukemia
[12] = test system: RPMI-8226 leukemia
[13] = test system: DMS 273 small cell lung
[14] = test system: HT29 colon
[15] = test system: HCT-15 colon
[16] = test system: SNB-78 CNS
[17] = test system: DLD-1 colon
[18] = test system: UO-31 renal
[19] = test system: KM20L2 colon
[20] = test system: SK-MEL-2 melanoma
[21] = test system: SF-268 CNS
[22] = test system: MALME-3M melanoma
[23] = test system: SK-MEL-28 melanoma
[24] = test system: COLO 205 colon
[25] = test system: MOLT-4 leukemia
[26] = test system: A498 renal
[27] = test system: SF-295 CNS
[28] = test system: SF-539 CNS
[29] = test system: SNB-75 CNS
[30] = test system: OVCAR-4 ovarian
[31] = test system: EKVX NSCLC
[32] = test system: ACHN renal
[33] = test system: DMS 114 small cell lung
[34] = test system: NCI-H23 lung
[35] = test system: HL-60(TB) leukemia
[36] = test system: M14 melanoma
[37] = test system: HOP-62 NSCLC
[38] = test system: SR leukemia
[39] = test system: LXFL 529 NSCLC
[40] = test system: NCI-H460 lung
[41] = test system: M19-MEL melanoma
[42] = test system: HCC-2998 colon
[43] = test system: NCI-H522 lung
[44] = test system: SN12C renal
[45] = test system: OVCAR-5 ovarian
[46] = test system: SNB-19 CNS
[47] = test system: SK-MEL-5 melanoma
[48] = test system: RXF 393 renal
[49] = test system: A549 NSCLC
[50] = test system: 786-0 renal
[51] = test system: LOX IMVI melanoma
[52] = test system: OVCAR-8 ovarian
[53] = test system: SW-620 colon
[54] = test system: K-562 leukemia
[55] = test system: BT-549 breast
[56] = test system: PC-3 prostate
[57] = test system: MCF7 breast
[58] = test system: MDA-N
[59] = test system: MDA-MB-435
[60] = test system: DU-145 prostate
[61] = test system: KM12 colon
[62] = test system: T-47D breast
[63] = test system: NCI/ADR-RES ovarian
[64] = test system: CAKI-1 renal
[65] = test system: HS 578T breast
[66] = test system: MDA-MB-231 breast

**Q.** What does the source list for O=C(O)C(CS)N=Cc1nc(-c2ccccc2)oc1O (stereo unspecified)?
**A.** TGI [1]: > 100 µM; TGI [2]: > 100 µM; TGI [3]: > 100 µM; TGI [4]: > 100 µM; TGI [5]: > 100 µM; TGI [6]: > 100 µM; TGI [7]: > 100 µM; TGI [8]: > 100 µM; TGI [9]: > 100 µM; TGI [10]: > 100 µM; TGI [11]: > 100 µM; TGI [12]: > 100 µM; TGI [13]: > 100 µM; TGI [14]: > 100 µM; TGI [15]: > 100 µM; TGI [16]: > 100 µM; TGI [17]: > 100 µM; TGI [18]: > 100 µM; TGI [19]: > 100 µM; TGI [20]: > 100 µM; TGI [21]: > 100 µM; TGI [22]: > 100 µM; TGI [23]: > 100 µM; TGI [24]: > 100 µM; TGI [25]: > 100 µM; TGI [26]: > 100 µM; TGI [27]: > 100 µM; TGI [28]: > 100 µM; TGI [29]: > 100 µM; TGI [30]: > 100 µM; TGI [31]: > 100 µM; TGI [32]: > 100 µM; TGI [33]: > 100 µM; TGI [34]: > 100 µM; TGI [35]: > 100 µM; TGI [36]: > 100 µM; TGI [37]: > 100 µM; TGI [38]: > 100 µM; TGI [39]: > 100 µM; TGI [40]: > 100 µM; TGI [41]: > 100 µM; TGI [42]: > 100 µM; TGI [43]: > 100 µM; TGI [44]: > 100 µM; TGI [45]: > 100 µM; TGI [46]: > 100 µM; TGI [47]: > 100 µM; TGI [48]: > 100 µM; TGI [49]: > 100 µM; TGI [50]: > 100 µM; TGI [51]: > 100 µM; TGI [52]: > 100 µM; TGI [53]: > 100 µM; TGI [54]: > 100 µM

**Q.** With COc1ccc(C(=C2C(=O)OC(=O)C2=C(C)C)c2ccc(OC)cc2)cc1 as the compound, how does the TGI [55] read?
**A.** > 100 µM

**Q.** What about the TGI [1] of the same compound?
**A.** > 100 µM

**Q.** What about the TGI [2] of the same compound?
**A.** > 100 µM

**Q.** What about the TGI [3] of the same compound?
**A.** > 100 µM

**Q.** And the TGI [4]?
**A.** 47.5 µM

**Q.** And the TGI [5]?
**A.** > 100 µM

**Q.** What about the TGI [56] of the same compound?
**A.** > 100 µM

**Q.** And the TGI [6]?
**A.** > 100 µM

**Q.** What about the TGI [7] of the same compound?
**A.** > 100 µM

**Q.** And the TGI [8]?
**A.** > 100 µM

**Q.** What about the TGI [9] of the same compound?
**A.** > 100 µM

**Q.** And the TGI [10]?
**A.** > 100 µM

**Q.** What about the TGI [57] of the same compound?
**A.** > 100 µM

**Q.** What about the TGI [12] of the same compound?
**A.** > 100 µM

**Q.** And the TGI [14]?
**A.** > 100 µM

**Q.** And the TGI [15]?
**A.** > 100 µM

**Q.** And the TGI [58]?
**A.** > 100 µM

**Q.** And the TGI [18]?
**A.** > 100 µM

**Q.** And the TGI [59]?
**A.** > 100 µM

**Q.** What about the TGI [60] of the same compound?
**A.** > 100 µM

**Q.** And the TGI [20]?
**A.** > 100 µM

**Q.** What about the TGI [61] of the same compound?
**A.** > 100 µM

**Q.** What about the TGI [21] of the same compound?
**A.** > 100 µM

**Q.** What about the TGI [22] of the same compound?
**A.** > 100 µM

**Q.** What about the TGI [23] of the same compound?
**A.** > 100 µM

**Q.** And the TGI [24]?
**A.** > 100 µM

**Q.** And the TGI [62]?
**A.** > 100 µM

**Q.** What about the TGI [25] of the same compound?
**A.** > 100 µM

**Q.** What about the TGI [26] of the same compound?
**A.** > 100 µM

**Q.** And the TGI [27]?
**A.** > 100 µM

**Q.** And the TGI [28]?
**A.** > 100 µM

**Q.** What about the TGI [29] of the same compound?
**A.** > 100 µM

**Q.** And the TGI [30]?
**A.** 92.5 µM

**Q.** What about the TGI [31] of the same compound?
**A.** > 100 µM

**Q.** What about the TGI [32] of the same compound?
**A.** > 100 µM

**Q.** And the TGI [34]?
**A.** > 100 µM

**Q.** What about the TGI [63] of the same compound?
**A.** > 100 µM

**Q.** What about the TGI [35] of the same compound?
**A.** 84.3 µM

**Q.** What about the TGI [64] of the same compound?
**A.** > 100 µM

**Q.** And the TGI [36]?
**A.** > 100 µM

**Q.** What about the TGI [37] of the same compound?
**A.** > 100 µM

**Q.** And the TGI [38]?
**A.** > 100 µM

**Q.** And the TGI [40]?
**A.** > 100 µM

**Q.** And the TGI [42]?
**A.** > 100 µM

**Q.** What about the TGI [43] of the same compound?
**A.** 55.7 µM

**Q.** And the TGI [44]?
**A.** > 100 µM

**Q.** What about the TGI [45] of the same compound?
**A.** > 100 µM

**Q.** And the TGI [46]?
**A.** > 100 µM

**Q.** And the TGI [47]?
**A.** > 100 µM

**Q.** And the TGI [48]?
**A.** > 100 µM

**Q.** What about the TGI [49] of the same compound?
**A.** > 100 µM

**Q.** What about the TGI [65] of the same compound?
**A.** > 100 µM

**Q.** And the TGI [50]?
**A.** > 100 µM

**Q.** What about the TGI [51] of the same compound?
**A.** > 100 µM

**Q.** What about the TGI [52] of the same compound?
**A.** > 100 µM

**Q.** What about the TGI [53] of the same compound?
**A.** > 100 µM

**Q.** What about the TGI [66] of the same compound?
**A.** > 100 µM
